From patent publication US4485110A, “β-Lactam compounds, and use” (priority 1980, dated 1984)
Where two headings read alike, the source gives them in different places.

What was measured:
Experiment in all cases: Antibacterial activity, broth MIC
Type in all cases: cell-based
[1] = test system: B. subtilis A; conditions: Bacillus subtilis, compound alone
Description: (§1) The antibacterial activity of a number of compounds described in the foregoing Examples against a number of organisms is shown in Tables 1 and 10.

[2] = test system: C. freundii E 8; conditions: Citrobacter freundii, E8; compound alone, broth; read-out: Broth MIC
Description: as §1

[3] = test system: E. cloacae N 1; conditions: Enterobacter cloacae, N1, compound alone
Description: as §1

[4] = test system: E. coli 0111; conditions: Escherichia coli, compound alone
Description: as §1

[5] = test system: E. coli ESS; conditions: Escherichia coli, read-out: Broth MIC
Description: as §1

[6] = test system: E. coli JT 39 R^+; conditions: Escherichia coli; compound alone, broth; read-out: Broth MIC
Description: as §1

[7] = test system: K. aerogenes A; conditions: Klebsiella aerogenes; compound alone, broth; read-out: Broth MIC
Description: as §1

[8] = test system: P. aeruginosa A; conditions: Pseudomonas aeruginosa, compound alone
Description: as §1

[9] = test system: P. mirabilis 977; conditions: Proteus mirabilis, compound alone
Description: as §1

[10] = test system: P. morganii I 580; conditions: Morganella morganii, I580, compound alone
Description: as §1

[11] = test system: P. rettgeri WM 16; conditions: Providencia rettgeri, WM16, compound alone
Description: as §1

[12] = test system: P. vulgaris WO 91; conditions: Proteus vulgaris, WO91, compound alone
Description: as §1

[13] = test system: S. aureus 1517; conditions: Staphylococcus aureus, compound alone
Description: as §1

[14] = test system: S. aureus Oxford; conditions: Staphylococcus aureus, compound alone
Description: as §1

[15] = test system: S. aureus Russell; conditions: Staphylococcus aureus, compound alone
Description: as §1

[16] = test system: S. faecalis I; conditions: Enterococcus faecalis; compound alone, broth; read-out: Broth MIC
Description: as §1

[17] = test system: S. marcescens US 20; conditions: Serratia marcescens, US20; compound alone, broth; read-out: Broth MIC
Description: as §1

[18] = test system: S. pyogenes CN 10; conditions: Streptococcus pyogenes, CN10, compound alone
Description: as §1

[19] = test system: S. sonnei MB 11967; conditions: Shigella sonnei, MB11967, compound alone
Description: as §1

[20] = test system: S. typhimurium CT 10; conditions: Salmonella enterica, compound alone
Description: as §1

[21] = test system: S. pneumoniae CN 33; conditions: Streptococcus pneumoniae, CN33, compound alone
Description: as §1

Row | SMILES | MIC [1] | MIC [2] | MIC [3] | MIC [4] | MIC ([5]; compound alone, broth) | MIC [6] | MIC [7] | MIC [8] | MIC [9] | MIC [10] | MIC [11] | MIC [12] | MIC [13] | MIC [14] | MIC [15] | MIC [16] | MIC [17] | MIC [18] | MIC [19] | MIC [20] | also measured
1 | CC=C1C(=O)N2C(C(=O)O)=C(Sc3ccccn3)SC12 (racemic) [Compound 99, (5RS)-Sodium 6-Ethylidene-2-(2-pyridylthio)penem-3-carboxylate] | 6.2 µg/mL | 100 µg/mL | 25 µg/mL | 100 µg/mL | 3.1 µg/mL | 50 µg/mL | 50 µg/mL | > 100 µg/mL | 100 µg/mL | 50 µg/mL | 25 µg/mL | 50 µg/mL | 100 µg/mL | 12.5 µg/mL | 6.2 µg/mL | > 100 µg/mL | 50 µg/mL | 1.6 µg/mL | 50 µg/mL | 50 µg/mL | –
2 | CC=C1C(=O)N2C(C(=O)O)=C(SCCN)SC12 (racemic) [Compound 101, (5RS)-Sodium 2-(2-aminoethylthio)-6-ethylidenepenem-3-carboxylate] | 12.5 µg/mL | 100 µg/mL | 100 µg/mL | 100 µg/mL | 12.5 µg/mL | 100 µg/mL | 100 µg/mL | > 100 µg/mL | > 100 µg/mL | > 100 µg/mL | 100 µg/mL | 100 µg/mL | > 100 µg/mL | 3.1 µg/mL | 3.1 µg/mL | > 100 µg/mL | > 100 µg/mL | 3.1 µg/mL | 100 µg/mL | 100 µg/mL | –
3 | CC=C1C(=O)N2C(C(=O)O)=C([S+]([O-])CC)SC12 (racemic) [Compound 103, (5RS)-Sodium 6-Ethylidene-2-ethylsulphinylpenem-3-carboxylate] | 25 µg/mL | > 100 µg/mL | > 100 µg/mL | > 100 µg/mL | 100 µg/mL | > 100 µg/mL | > 100 µg/mL | > 100 µg/mL | 100 µg/mL | > 100 µg/mL | > 100 µg/mL | > 100 µg/mL | > 100 µg/mL | 50 µg/mL | > 100 µg/mL | > 100 µg/mL | > 100 µg/mL | 12.5 µg/mL | > 100 µg/mL | > 100 µg/mL | MIC [21]: 25 µg/mL
4 | CCSC1=C(C(=O)O)N2C(=O)C(=C(C)C)C2S1 (racemic) [Compound 129, (5RS)-Sodium 2-Ethylthio-6-isopropylidenepenem-3-carboxylate] | 25 µg/mL | – | – | – | – | – | – | – | – | – | – | – | – | 12.5 µg/mL | 12.5 µg/mL | 50 µg/mL | – | 0.4 µg/mL | – | – | MIC [5]: 12.5 µg/mL; MIC [21]: 1.6 µg/mL
5 | CCSC1=C(C(=O)O)N2C(=O)C(=Cc3ccccc3)C2S1 (stereo not drawn) [Compound 118, (5RS)-Sodium (Z)-6-Benzylidene-2-ethylthiopenem-3-carboxylate] | 12.5 µg/mL | > 100 µg/mL | > 100 µg/mL | > 100 µg/mL | – | > 100 µg/mL | > 100 µg/mL | > 100 µg/mL | > 100 µg/mL | > 100 µg/mL | > 100 µg/mL | > 100 µg/mL | 100 µg/mL | 1.6 µg/mL | 3.1 µg/mL | > 100 µg/mL | > 100 µg/mL | 1.6 µg/mL | > 100 µg/mL | > 100 µg/mL | MIC [5]: > 1.6 µg/mL; MIC [21]: 1.6 µg/mL
